From PubChem BioAssay (NCI)
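Assay format: 96-well plates, 48-hour exposure. GI50 is the concentration that inhibits growth by half. At the TGI there is no net growth.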

Tests used:
Experiment in all cases: NCI anticancer screen, dose series, 48 h; in the data active means GI50 below about 0.43 µM; inactive means the rest
[1] = tested on: DU-145 prostate
[2] = tested on: SK-MEL-28 melanoma
[3] = tested on: T-47D breast
[4] = tested on: NCI-H23 lung
[5] = tested on: PC-3 prostate
[6] = tested on: NCI-H522 lung
[7] = tested on: 786-0 renal
[8] = tested on: SF-539 CNS
[9] = tested on: SNB-19 CNS
[10] = tested on: SF-295 CNS
[11] = tested on: MOLT-4 leukemia
[12] = tested on: MDA-MB-435
[13] = tested on: MALME-3M melanoma
[14] = tested on: U251 CNS
[15] = tested on: SK-MEL-5 melanoma
[16] = tested on: HOP-62 NSCLC
[17] = tested on: SF-268 CNS
[18] = tested on: CCRF-CEM leukemia
[19] = tested on: MDA-MB-231 breast
[20] = tested on: OVCAR-8 ovarian
[21] = tested on: RXF 393 renal
[22] = tested on: SK-MEL-2 melanoma
[23] = tested on: HCT-116 colon
[24] = tested on: OVCAR-4 ovarian
[25] = tested on: UO-31 renal
[26] = tested on: A549 NSCLC
[27] = tested on: SW-620 colon
[28] = tested on: UACC-257 melanoma
[29] = tested on: TK-10 renal
[30] = tested on: HS 578T breast
[31] = tested on: ACHN renal
[32] = tested on: NCI-H226 lung
[33] = tested on: HCT-15 colon
[34] = tested on: LOX IMVI melanoma
[35] = tested on: UACC-62 melanoma
[36] = tested on: M14 melanoma
[37] = tested on: OVCAR-5 ovarian
[38] = tested on: NCI-H460 lung
[39] = tested on: SN12C renal
[40] = tested on: HT29 colon
[41] = tested on: HCC-2998 colon
[42] = tested on: HL-60(TB) leukemia
[43] = tested on: IGROV1 ovarian
[44] = tested on: RPMI-8226 leukemia
[45] = tested on: BT-549 breast
[46] = tested on: SNB-75 CNS
[47] = tested on: K-562 leukemia
[48] = tested on: NCI/ADR-RES ovarian
[49] = tested on: A498 renal
[50] = tested on: SK-OV-3 ovarian
[51] = tested on: MCF7 breast
[52] = tested on: CAKI-1 renal
[53] = tested on: COLO 205 colon
[54] = tested on: EKVX NSCLC
[55] = tested on: HOP-92 NSCLC
[56] = tested on: OVCAR-3 ovarian
[57] = tested on: KM12 colon

O=S(=O)(NCCCNc1nccc(-c2c(-c3ccc(F)cc3)nc3sccn23)n1)c1ccc(F)cc1
77.5 µM: TGI [32]
13.2 µM: TGI [3]
94.4 µM: TGI [13]
45.6 µM: TGI [49]
31.2 µM: TGI [45]
26.7 µM: TGI [24]
16.9 µM: TGI [46]
57.9 µM: TGI [15]
inactive: GI50 [1] 10.8 µM | GI50 [2] 20.3 µM | GI50 [3] 2.28 µM | GI50 [4] 17.8 µM | GI50 [5] 9.54 µM | GI50 [6] 10 µM | GI50 [7] 11 µM | GI50 [8] 42.1 µM | GI50 [9] 62.1 µM | GI50 [10] 20.6 µM | GI50 [11] 8.08 µM | GI50 [12] 3.69 µM | GI50 [13] 9.06 µM | GI50 [14] 8.87 µM | GI50 [15] 4.63 µM | GI50 [16] 24.8 µM | GI50 [17] 20 µM | GI50 [18] 3.91 µM | GI50 [19] 14.2 µM | GI50 [20] 4.56 µM | GI50 [21] 3.67 µM | GI50 [22] 23.2 µM | GI50 [23] 5.55 µM | GI50 [24] 3.53 µM | GI50 [25] 3.8 µM | GI50 [26] 4.87 µM | GI50 [27] 33.2 µM | GI50 [28] 21.9 µM | GI50 [29] 19.2 µM | GI50 [30] 9.66 µM | GI50 [31] 4.61 µM | GI50 [32] 4.76 µM | GI50 [33] 3.92 µM | GI50 [34] 6.28 µM | GI50 [35] 4.68 µM | GI50 [36] 7.06 µM | GI50 [37] > 100 µM | GI50 [38] 5.62 µM | GI50 [39] 9.04 µM | GI50 [40] 3.52 µM | GI50 [41] 20.6 µM | GI50 [42] 8.38 µM | GI50 [43] 8.85 µM | GI50 [44] 5.29 µM | GI50 [45] 3.9 µM | GI50 [46] 2.16 µM | GI50 [47] 4.62 µM | GI50 [48] 6.6 µM | GI50 [49] 2.25 µM | GI50 [50] 17.1 µM | GI50 [51] 3.24 µM | GI50 [52] 7.8 µM | GI50 [53] 6.23 µM
21.4 µM: TGI [40]
> 100 µM: TGI [1] | TGI [2] | TGI [4] | TGI [5] | TGI [6] | TGI [7] | TGI [8] | TGI [9] | TGI [10] | TGI [11] | TGI [12] | TGI [14] | TGI [16] | TGI [17] | TGI [18] | TGI [19] | TGI [20] | TGI [22] | TGI [23] | TGI [25] | TGI [26] | TGI [27] | TGI [28] | TGI [29] | TGI [30] | TGI [31] | TGI [33] | TGI [34] | TGI [36] | TGI [37] | TGI [38] | TGI [39] | TGI [41] | TGI [42] | TGI [43] | TGI [47] | TGI [48] | TGI [50] | TGI [51] | TGI [52] | TGI [53]
86 µM: TGI [44]
50.7 µM: TGI [35]
70.8 µM: TGI [21]

Cc1ccc(Cl)cc1-n1c(C)nc2c(cnn2-c2ccnc3c(C(F)(F)F)cccc23)c1=O
inactive: GI50 [1] > 100 µM | GI50 [2] > 100 µM | GI50 [3] > 100 µM | GI50 [4] > 100 µM | GI50 [5] > 100 µM | GI50 [54] > 100 µM | GI50 [6] > 100 µM | GI50 [55] > 100 µM | GI50 [7] > 100 µM | GI50 [8] > 100 µM | GI50 [9] > 100 µM | GI50 [10] > 100 µM | GI50 [56] > 100 µM | GI50 [11] > 100 µM | GI50 [12] > 100 µM | GI50 [13] > 100 µM | GI50 [57] > 100 µM | GI50 [14] > 100 µM | GI50 [15] > 100 µM | GI50 [16] > 100 µM | GI50 [17] > 100 µM | GI50 [18] > 100 µM | GI50 [19] > 100 µM | GI50 [20] > 100 µM | GI50 [21] > 100 µM | GI50 [22] > 100 µM | GI50 [23] > 100 µM | GI50 [24] > 100 µM | GI50 [25] > 100 µM | GI50 [26] > 100 µM | GI50 [27] > 100 µM | GI50 [28] > 100 µM | GI50 [29] > 100 µM | GI50 [30] > 100 µM | GI50 [31] > 100 µM | GI50 [32] > 100 µM | GI50 [33] > 100 µM | GI50 [34] > 100 µM | GI50 [35] > 100 µM | GI50 [37] > 100 µM | GI50 [38] > 100 µM | GI50 [39] > 100 µM | GI50 [40] > 100 µM | GI50 [41] > 100 µM | GI50 [42] > 100 µM | GI50 [43] > 100 µM | GI50 [44] > 100 µM | GI50 [45] > 100 µM | GI50 [46] > 100 µM | GI50 [47] > 100 µM | GI50 [48] > 100 µM | GI50 [50] > 100 µM | GI50 [51] > 100 µM | GI50 [52] > 100 µM | GI50 [53] > 100 µM
> 100 µM: TGI [1] | TGI [2] | TGI [3] | TGI [4] | TGI [5] | TGI [54] | TGI [6] | TGI [55] | TGI [7] | TGI [8] | TGI [9] | TGI [10] | TGI [56] | TGI [11] | TGI [12] | TGI [13] | TGI [57] | TGI [14] | TGI [15] | TGI [16] | TGI [17] | TGI [18] | TGI [19] | TGI [20] | TGI [21] | TGI [22] | TGI [23] | TGI [24] | TGI [25] | TGI [26] | TGI [27] | TGI [28] | TGI [29] | TGI [30] | TGI [31] | TGI [32] | TGI [33] | TGI [34] | TGI [35] | TGI [37] | TGI [38] | TGI [39] | TGI [40] | TGI [41] | TGI [42] | TGI [43] | TGI [44] | TGI [45] | TGI [46] | TGI [47] | TGI [48] | TGI [50] | TGI [51] | TGI [52] | TGI [53]
